What all share (assay type): cell-based
For test [1], the target named is T1, NCX2 (Rattus norvegicus, UniProt P48768).
T1 construct: expressed in transfected cells
The test can be described thus: Patch-clamp electrophysiology (whole-cell NCX currents), BHK-NCX2 cells. To be noted: 10 nM, 10 minutes. On the procedure:
(§1) To further investigate the effects of this compound on the Na^+/Ca^2+ exchanger activity, we performed electrophysiological experiments on BHK cells stably transfected with each of NCX isoforms (named BHK-NCX1, BHK-NCX2 and BHK-NCX3).
(§2) The activity of NCX was established by means of three different subclones of baby hamsted kidney (BHK) cells that were stably transfected with one of each NCX isoforms, named BHK-NCX1, BHK-NCX2 and BHK-NCX3. These cell lines were grown on plastic dishes in a mix of DMEM and Ham's F12 media (1:1) (Gibco, Invitrogen, MI, Italy) supplemented with 5% fetal bovine serum, 100 U/ml penicillin, and 100 µg/ml streptomycin (Sigma, St. Louis, Missouri, USA). Cells were cultured in a humidified 5% CO2 atmosphere and at the temperature of 37°C.
(§3) NCX currents (/NCX) was recorded from BHK wild-type and BHK stably transfected cells with NCX1, NCX2, and NCX3 and all each mutated of single isoforrms by patch-clamp technique in whole-cell configuration. […] Data were acquired and analyzed by use of pClamp software (version 9.0, Molecular Devices). In brief, /NCX was recorded starting from a holding potential of -60 mV up to a short-step depolarization at +60 mV (60 ms) (He et al., 2003; Xiao et al., 2004). […] The current recorded in the descending portion of the ramp (from +60 to -120 mV) was used to plot the current-voltage (I-V) relation curve. […]
For orientation: Patch clamp records ionic current or voltage across a cell membrane.

In a further test the target is T2, NCX1 (Canis lupus familiaris, UniProt P23685).
T2 construct: expressed in transfected cells
T2 sequence (P23685 33-970): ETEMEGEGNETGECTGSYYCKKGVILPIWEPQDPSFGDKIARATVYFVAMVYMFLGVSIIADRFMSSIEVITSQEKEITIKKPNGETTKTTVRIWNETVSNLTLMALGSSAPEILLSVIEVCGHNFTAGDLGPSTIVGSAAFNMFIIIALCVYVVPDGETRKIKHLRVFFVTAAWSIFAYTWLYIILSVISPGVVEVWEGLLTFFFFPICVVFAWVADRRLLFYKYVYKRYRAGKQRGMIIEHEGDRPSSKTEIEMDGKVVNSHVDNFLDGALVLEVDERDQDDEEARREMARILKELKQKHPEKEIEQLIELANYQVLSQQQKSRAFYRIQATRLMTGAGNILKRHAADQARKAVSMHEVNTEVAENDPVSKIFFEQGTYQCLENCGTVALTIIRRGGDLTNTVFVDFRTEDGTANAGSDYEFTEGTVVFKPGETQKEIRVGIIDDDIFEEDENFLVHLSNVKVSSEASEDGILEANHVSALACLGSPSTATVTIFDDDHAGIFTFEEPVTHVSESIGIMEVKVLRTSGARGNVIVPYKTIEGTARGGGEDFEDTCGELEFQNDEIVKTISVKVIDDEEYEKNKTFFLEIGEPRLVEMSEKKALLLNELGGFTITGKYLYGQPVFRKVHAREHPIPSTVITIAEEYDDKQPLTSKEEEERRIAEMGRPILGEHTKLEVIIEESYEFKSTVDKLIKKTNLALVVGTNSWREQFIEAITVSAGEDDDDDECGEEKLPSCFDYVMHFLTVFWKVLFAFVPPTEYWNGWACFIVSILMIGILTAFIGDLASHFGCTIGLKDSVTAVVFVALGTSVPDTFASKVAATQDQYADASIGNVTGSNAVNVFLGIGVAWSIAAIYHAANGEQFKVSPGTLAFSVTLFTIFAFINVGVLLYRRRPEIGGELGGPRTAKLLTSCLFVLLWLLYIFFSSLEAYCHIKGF
The test can be described thus: Patch-clamp electrophysiology (whole-cell NCX currents), BHK-NCX1 cells. The settings on record: 10 nM, 10 minutes. How it is done:
as §1, §2, §3

Test [2] deals with T1, NCX2. The test can be described thus: 45Ca2+ radiotracer fluxes (efflux/influx) in BHK-NCX2 cells. On the procedure: as §2
The activity of the Na^+/Ca^2+ exchanger was measured by means of ^45Ca^2+ radiotracer variations in the cytoplasm of cells exposed to a protocol stimulating the forward or the reverse mode of the antiporter. The BHK cells expressing each mutated or non-mutated NCX isoform were cultured in 12-well dishes and incubated in 145 mM NaCl for 10 minutes and then in a medium containing only 145 mM N-Methyl D-glucamine (NMDG) and 10 µM of ^45Ca^2+. This rapid substitution of the medium from a high level of Na^+ to another one without Na^+ allow the ^45Ca^2+ influx (reverse mode). Before the medium substitution cells was incubated with 1 mM ouabain, a Na^+/K^+ pump inhibitor, and 10 µM monensin, a ionophore for extracellular Na^+. After 30 seconds incubation, cells were washed with an ice-cold solution containing 2 mM La^3+ to stop ^45Ca^2+ uptake. The medium was removed and cells were subsequently lysed with 0.1 N NaOH and aliquots were taken to determine radioactivity and protein content.
In order to measure NCX activity in the forward mode, cells were firstly loaded with ^45Ca^2+ and subsequently exposed to a chemical protocol to stimulate the efflux of the radiotracer in the extracellular medium. In particular, cells were loaded with ^45Ca^2+ by using a solution containing 1 µM ionomycin, 145 mM Na^+ and ^45Ca^2+. Next, cells were exposed to a Ca^2+-free solution containing 2 mM EGTA. One µM thapsigargin, a Ca^2+-ATPase inhibitor, was present in both solutions in order to prevent ^45Ca^2+ influx in intracellular organelles. After 60 second, cells were lysed with […] NaOH and aliquots were taken to determine cytoplasmatic radioactivity.
Cells were incubated for 30 minutes with different neurounina-1 concentrations.

The structures appear in SMILES notation.

T1 sequence (P48768 21-921): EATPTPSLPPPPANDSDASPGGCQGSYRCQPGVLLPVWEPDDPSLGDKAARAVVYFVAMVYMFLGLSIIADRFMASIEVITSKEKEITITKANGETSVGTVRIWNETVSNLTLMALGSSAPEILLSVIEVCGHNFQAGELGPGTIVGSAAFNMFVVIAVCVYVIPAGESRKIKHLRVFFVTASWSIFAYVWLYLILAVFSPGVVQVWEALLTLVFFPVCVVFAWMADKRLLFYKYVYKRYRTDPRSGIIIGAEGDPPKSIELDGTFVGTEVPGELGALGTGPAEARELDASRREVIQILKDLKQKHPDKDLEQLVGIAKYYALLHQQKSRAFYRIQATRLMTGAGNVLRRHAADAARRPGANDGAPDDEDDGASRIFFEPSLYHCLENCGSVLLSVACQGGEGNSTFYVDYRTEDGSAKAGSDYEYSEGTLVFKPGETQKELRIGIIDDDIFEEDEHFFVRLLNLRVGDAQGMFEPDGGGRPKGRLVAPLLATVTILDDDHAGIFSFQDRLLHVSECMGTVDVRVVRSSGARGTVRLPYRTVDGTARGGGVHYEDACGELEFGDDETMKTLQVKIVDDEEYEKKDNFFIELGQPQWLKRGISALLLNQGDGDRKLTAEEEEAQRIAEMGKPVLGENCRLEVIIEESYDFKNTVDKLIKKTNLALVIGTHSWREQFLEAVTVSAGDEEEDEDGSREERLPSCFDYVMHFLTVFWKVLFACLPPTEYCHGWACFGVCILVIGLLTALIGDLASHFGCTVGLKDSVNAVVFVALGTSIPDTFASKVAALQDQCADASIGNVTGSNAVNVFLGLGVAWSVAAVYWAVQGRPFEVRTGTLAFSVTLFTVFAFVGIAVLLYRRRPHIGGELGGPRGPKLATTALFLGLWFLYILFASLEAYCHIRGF

Regarding `O=C1CN=C(c2ccccc2)c2cc([N+](=O)[O-])ccc2N1CN1CCCC1` [neurounina-1, 7-nitro-5-phenyl-1-(pyrrolidin-1-ylmethyl)-1H-benzo[e][1,4]diazepin-2(3H)-one], on NCX2 [1], the “increased forward and reverse activity of NCX2” value came out at 30%. The “increased forward and reverse activity of NCX1” value on NCX1 came out at 60%. Further, the “increase of forward mode of NCX2 activity” value on NCX2 [2] (45Ca2+ radiotracer, forward mode) is recorded as 30%. The “increase of reverse mode NCX2 activity” value on NCX2 [2] (45Ca2+ radiotracer, reverse mode) is on record as 40%. Also, the EC50 (usually the concentration giving half of the maximal effect) was 2.7 nM on NCX2 [2] (EC50 NCX2, reverse mode, 45Ca2+ radiotracer, reverse mode); 1.7 nM on NCX2 [2] (EC50 for NCX2, forward mode, 45Ca2+ radiotracer, forward mode); 1 to 2 nM on NCX2 [2] (EC50 su NCX2, from the functional assays (summary)). The NCX2 activity result on NCX2 [2] (forward and reverse mode, patch clamp, Fura-2 microfluorimetry and 45Ca2+ fluxes (summary)) is “increases, in a dose-dependent manner”.

The record behind these values is patent publication EP2646421B1, “7-NITRO-5-PHENYL-1-(PYRROLIDIN-1-YLMETHYL)-1H-BENZO[E][1,4]DIAZEPIN-2(3H)-ONE AND OTHER BENZODIAZEPINE DERIVATIVES” (Pignataro, Giuseppe, priority 2010, dated 2012).
